Assay results published in PMC9969396, “Development of Human Carbonic Anhydrase II Heterobifunctional Degraders” (Journal of Medicinal Chemistry, 2023).
Like-named read-outs stand apart in the source and are kept apart here.

Experiments:
hCAII [1] = target: T1, hCAII (Homo sapiens, UniProt P00918+Q96SW2); experiment: single-point hCAII degradation screen in HEK293 cells, western blot; assay type: cell-based; settings: 5 μM, 24 h; for activity in single-point screen (hCAII degradation): vs DMSO vehicle
T1 construct: HEK293 cells, a line known to abundantly express hCAII; endogenous in cells; host or cells: HEK293
Protocol: Following the confirmation of candidate hCAII’s in vitro activity, candidate degraders 1–10 were evaluated for their degradation of hCAII using HEK293 cells, a line known to abundantly express hCAII.[48] To obtain a preliminary evaluation of the activity of these compounds, an initial single-point screen was performed with HEK293 cells dosed with individual degrader candidates at a final concentration of 5 μM for 24 h prior to cell lysis. The relative abundance of hCAII in whole cell lysates was then evaluated via western blot analysis (see the Experimental Section for details).
Figure 2 Single-point activity screen of degrader candidates 1–10. Western blot analysis of HEK293 cells treated with degrader candidate (5 μM final concentration) or vehicle (DMSO) for 24 h. […] Degraders 4 and 5 were identified as active from this screen. Full images of the western blots are provided within the Supporting Information (Figure S1).
HEK293 cells were cultured in Dulbecco’s modified Eagle’s medium (DMEM, Gibco, 4.5 g/L glucose) supplemented with 10% fetal bovine serum (FBS), 1% sodium pyruvate, and 1% penicillin/streptomycin. Cells were grown at 37 °C in a humidified 5% CO2 atmosphere and regularly tested for mycoplasma.
After reaching 90% confluency, HEK293 cells were trypsinized, counted, and plated with 2 mL media at 2 × 10^6 cells per well on a tissue-culture-treated, 6-well plate. At the appropriate number of hours before reaching ∼90% confluency, cells were treated with DMSO solutions of the appropriate compounds (final concentration 0.5% DMSO per well). Upon reaching 90% confluency, typically 72 h, culture media were removed and the cells were washed with cold Dulbecco’s phosphate-buffered saline (DPBS). Lysis buffer, composed of cell lysis buffer (Cell Signaling Technology, 9803), protease inhibitor cocktail (Cell Signaling Technology, 5872), and 1 mM phenylmethylsulfonylfluoride, was added to each well, and the plates were rocked at 4 °C for 20 min. Cells were then scraped from the bottom of the plates, and the supernatant was collected after spinning down at 14,000g at 4 °C for 10 min and frozen at −80 °C. Lysates were thawed on ice, and the total protein concentration was measured using a Pierce bicinchoninic acid protein assay (Thermo Fisher Scientific, 23225). […] The immunoblot was then analyzed using the ImageJ software as an 8-bit image. The brightness and contrast of the image were adjusted, and the integrated density was calculated for each protein band using the gel lane analysis tool. Relative hCAII expression was calculated by normalizing the hCAII/β-actin ratio in compound-treated wells to the hCAII/β-actin ratio in vehicle (DMSO)-treated wells and indicated as “hCAII Abundance (% DMSO)”.

hCAII [2] = target: T2, hCAII (Homo sapiens, UniProt P00918); experiment: colorimetric p-nitrophenyl acetate hCAII activity assay; assay type: biochemical
T2 construct: made in house; host or cells: Escherichia coli BL21(DE3), pACA plasmid (gift from Carol A. Fierke)
Protocol: To verify that the p-sulfamoyl benzamide MBP retained its binding following ligation with the linker and bulky recruiting group moieties, the inhibition activity of each degrader candidate was determined using a colorimetric p-nitrophenol acetate hCAII activity assay.[46] In short, recombinantly expressed hCAII was preincubated with the degrader candidate before the addition of p-nitrophenyl acetate, a substrate that upon enzymatic cleavage leads to acetic acid and p-nitrophenolate.
Recombinant hCAII was expressed and purified according to the protocol reported in the Supporting Information. […] Wells were prepared to a final volume of 100 μL per well, including buffer (50 mM HEPES, pH 8.0), enzyme (hCAII, 40 nM), inhibitor (varying concentrations), and substrate (p-nitrophenyl acetate, 500 μM). Inhibitors and protein were preincubated for 10 min at rt, and the substrate was added to the reaction mixture immediately before reading. […] The rate of absorbance for each replicate was corrected for substrate autohydrolysis and inherent inhibitor absorbance by subtracting the rate of absorbance from a blank sample lacking enzyme but containing the inhibitor and substrate. Samples lacking inhibitor but containing enzyme and substrate were used to define 100% hCAII activity. Samples lacking inhibitor and enzyme were used to define 0% hCAII activity. IC50 was determined using non-linear regression with a variable slope on the GraphPad Prism software.

[3] = enzyme concentration of 40 nM, read-out: IC50, below the detection limit of the assay
[4] = recombinant hCAII 40 nM, p-nitrophenyl acetate 500 μM, pH 8.0, 95% confidence interval, read-out: IC50 (nM), hCAII inhibition activity (Table S1)

| Structure (SMILES) | protein degradation quantified by western blot (hCAII [1]) [%] | activity in single-point screen (hCAII degradation) (hCAII [1]) | IC50 (hCAII [2]; [3]) [nM] | IC50 (hCAII [2]; [4]) [nM] |
| --- | --- | --- | --- | --- |
| NS(=O)(=O)c1ccc(C(=O)NCCCOCCCCOCCCNc2cccc3c2C(=O)N(C2CCC(=O)NC2=O)C3=O)cc1 (centres unmarked) [Compound 4, N-(3-(4-(3-((2-(2,6-Dioxopiperidin-3-yl)-1,3-dioxoisoindolin-4-yl)amino)propoxy)butoxy)propyl)-4-sulfamoylbenzamide] | 64 | active | ≤ 20 | ≤ 20 |
| NS(=O)(=O)c1ccc(C(=O)NCCCOCCOCCOCCCNc2cccc3c2C(=O)N(C2CCC(=O)NC2=O)C3=O)cc1 (centres unmarked) [Compound 5, N-(3-(2-(2-(3-((2-(2,6-Dioxopiperidin-3-yl)-1,3-dioxoisoindolin-4-yl)amino)propoxy)ethoxy)ethoxy)propyl)-4-sulfamoylbenzamide] | 85 | active | ≤ 20 | ≤ 20 |
